Experimental findings from publication PMC12645437, “Orthogonal IMiD-Degron Pairs Induce Selective Protein Degradation in Cells” (ACS Chemical Biology, 2025) are described below.

Molecules are shown by their SMILES. Values joined by “and” are separate entries in the source; they are usually repeats but may differ in a detail not shown here. Equal values may be shown once. Read-outs that look alike come from different tables or passages of the source.

Assay [1] addresses T1, Q147A mutant degron (ANQS) fused to EGFP (Homo sapiens, UniProt Q96SW2+Q9UKT9, Q147A).
T1 construct: pLVX-Sprout-IKZF3 130-189aa Q147A (ANQS); expressed in transfected cells
The experiment in a line: Ratiometric EGFP:mCherry flow cytometry degradation assay, 18 h. Conditions: Jurkat, read-out: DMax Q147A/%. It is filed as cell-based.

In assay [2] the target is T2, endogenous IKZF3 in Jurkat cells (Homo sapiens, UniProt Q96SW2+Q9UKT9).
T2 construct: endogenous in cells; host or cells: Jurkat (transduced with ZF-EGFP constructs, or untransduced)
The assay is described as follows: Western blot for endogenous IKZF3. It is filed as cell-based.

Assay [3] addresses T3, ZF-EGFP fusion protein with the HEIP, AEVK, WEIS, or WT ZF degron (Homo sapiens, UniProt Q9UKT9).
T3 construct: The degron spans residues 130–189 of IKZF3; expressed in transfected cells; host or cells: Jurkat, lentivirally transduced, presorted mCherry+
The assay is described as follows: Western blot for ZF-EGFP fusion protein. It is filed as cell-based.

For another assay, the system named is Jurkat cells. The experiment in a line: TMTpro quantitative proteomics, 16 h. The settings on record: Jurkat whole cell extracts, TMTpro SPS-MS3.
Another assay relates to MM.1S cells. The assay is described as follows: TMTpro quantitative proteomics, 16 h. The settings on record: 1 μM.
Assay [4] has as its system library of 8380 IKZF3 degrons fused to EGFP in Jurkat cells. The assay is described as follows: Pooled mutant ZF degron library screen (FACS EGFPlow vs EGFP+, NGS), 18 h.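 As to logFC: Log2 fold change of EGFPlow over EGFP+ representation.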 It counts as cell-based, human.
The target of assay [5] is T4, endogenous IKZF1 in Jurkat cells (Homo sapiens, UniProt Q13422+Q96SW2).
T4 construct: endogenous in cells; host or cells: Jurkat (untransduced for immunostaining; WEIS-EGFP-transduced for the blot)
The assay is described as follows: Endogenous IKZF1 immunostaining, fluorescent antibody flow cytometry assay. It is filed as cell-based. The settings on record: 18 h. The protocol: As we sought to screen a large number of mutant ZF degrons with different mutation combinations, we pursued a library screen approach similar to that previously employed by Sievers et al. and Jan et al. , Only the most promising compounds from the original set of 36 were used for the library screen. To help narrow the candidates, a subset of compounds was tested for endogenous IKZF1 degradation in Jurkat cells using a fluorescent antibody flow cytometry assay (Figure S5). […] Thalidomide and lenalidomide were also included as controls.
Endogenous IKZF1 Immunostaining
37 °C and 5% CO2. Following incubation, cells were stained with LIVE/DEAD™ Fixable Aqua Dead Cell Stain (Thermo) diluted 1000X in PBS for 30 min at room temperature and then incubated with Human TruStain FcX block (Biolegend) diluted 40X in PBS + 1% FBS (Gibco) for 10 min at room temperature. Intranuclear staining of IKZF1 was carried out using the Transcription Factor Buffer Set (BD Bioscience) according to the manufacturer's protocol and staining with IKZF1 AF488 antibody (clone R32-1149, BD Bioscience) diluted 40X for 30 minutes at room temperature. Cells were acquired on a Cytoflex S (Beckman Coulter) and data analysed using FlowJo 10.8.1 9 (BD).

Where [6] appears, read: protein AADAT isoform 2 (Q8N5Z0-2).
Where [7] appears, read: WT degron, residues 146/147/149/150/152/153/154/155/167: FQNQGASFL
Where [8] appears, read: degron residues 146/147/149/150/152/153/154/155/167: FADIGAAFL
The mark [9] stands for this setting: degron residues 146/147/149/150/152/153/154/155/167: FADIGACFL
[10] abbreviates: degron residues 146/147/149/150/152/153/154/155/167: FADIGADFL
The mark [11] stands for this setting: degron residues 146/147/149/150/152/153/154/155/167: FADIGAEFL
The mark [12] stands for this setting: degron residues 146/147/149/150/152/153/154/155/167: FREIGAPFL
Setting [13] is: degron residues 146/147/149/150/152/153/154/155/167: FYEVGACFL

T1 sequence (Q9UKT9 130-189 Q147A): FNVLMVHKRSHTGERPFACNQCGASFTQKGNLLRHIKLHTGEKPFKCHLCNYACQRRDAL
T1 sequence (Q96SW2 whole entry, the tested form may be a part): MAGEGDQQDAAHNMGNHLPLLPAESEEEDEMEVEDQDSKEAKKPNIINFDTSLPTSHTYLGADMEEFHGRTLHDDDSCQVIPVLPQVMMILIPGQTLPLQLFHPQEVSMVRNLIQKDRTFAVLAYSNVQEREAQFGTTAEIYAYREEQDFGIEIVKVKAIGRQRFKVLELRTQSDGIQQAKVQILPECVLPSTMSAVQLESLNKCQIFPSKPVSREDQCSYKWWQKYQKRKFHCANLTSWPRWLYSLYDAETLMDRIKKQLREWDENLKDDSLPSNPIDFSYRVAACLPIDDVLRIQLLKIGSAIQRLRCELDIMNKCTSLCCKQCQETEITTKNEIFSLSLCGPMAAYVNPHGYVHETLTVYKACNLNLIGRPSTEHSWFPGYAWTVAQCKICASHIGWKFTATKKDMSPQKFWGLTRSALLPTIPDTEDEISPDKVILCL
T1 sequence (Q16531 whole entry partner, the tested form may be a part): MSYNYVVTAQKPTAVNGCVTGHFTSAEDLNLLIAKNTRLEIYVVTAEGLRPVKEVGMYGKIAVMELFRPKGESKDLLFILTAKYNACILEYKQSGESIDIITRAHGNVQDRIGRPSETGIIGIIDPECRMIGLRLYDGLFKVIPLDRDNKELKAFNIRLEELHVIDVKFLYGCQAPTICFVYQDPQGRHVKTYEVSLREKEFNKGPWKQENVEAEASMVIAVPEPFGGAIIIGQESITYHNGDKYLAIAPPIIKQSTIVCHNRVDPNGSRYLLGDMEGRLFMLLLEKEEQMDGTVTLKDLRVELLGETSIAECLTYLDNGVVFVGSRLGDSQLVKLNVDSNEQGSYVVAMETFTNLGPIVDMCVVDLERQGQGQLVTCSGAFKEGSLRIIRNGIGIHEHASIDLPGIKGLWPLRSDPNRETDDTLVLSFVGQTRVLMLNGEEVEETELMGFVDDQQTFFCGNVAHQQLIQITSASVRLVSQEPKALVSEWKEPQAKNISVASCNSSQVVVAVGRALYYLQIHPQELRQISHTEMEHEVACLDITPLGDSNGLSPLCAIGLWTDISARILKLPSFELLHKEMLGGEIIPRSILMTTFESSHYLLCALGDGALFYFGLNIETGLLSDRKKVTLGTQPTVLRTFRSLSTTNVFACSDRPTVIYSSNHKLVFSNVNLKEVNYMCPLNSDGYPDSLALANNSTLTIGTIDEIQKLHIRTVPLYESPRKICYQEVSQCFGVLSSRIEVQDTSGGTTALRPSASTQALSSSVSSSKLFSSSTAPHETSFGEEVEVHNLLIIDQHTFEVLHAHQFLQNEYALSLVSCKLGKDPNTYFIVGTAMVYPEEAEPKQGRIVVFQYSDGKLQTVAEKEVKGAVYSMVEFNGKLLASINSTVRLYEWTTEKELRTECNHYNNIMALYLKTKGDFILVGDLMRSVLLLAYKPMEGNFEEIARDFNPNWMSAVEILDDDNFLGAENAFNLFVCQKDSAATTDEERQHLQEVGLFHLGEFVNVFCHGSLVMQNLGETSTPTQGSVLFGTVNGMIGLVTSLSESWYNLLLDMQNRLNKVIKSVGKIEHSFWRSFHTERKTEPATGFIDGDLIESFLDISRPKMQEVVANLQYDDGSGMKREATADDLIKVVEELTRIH
T2 sequence (Q9UKT9 whole entry): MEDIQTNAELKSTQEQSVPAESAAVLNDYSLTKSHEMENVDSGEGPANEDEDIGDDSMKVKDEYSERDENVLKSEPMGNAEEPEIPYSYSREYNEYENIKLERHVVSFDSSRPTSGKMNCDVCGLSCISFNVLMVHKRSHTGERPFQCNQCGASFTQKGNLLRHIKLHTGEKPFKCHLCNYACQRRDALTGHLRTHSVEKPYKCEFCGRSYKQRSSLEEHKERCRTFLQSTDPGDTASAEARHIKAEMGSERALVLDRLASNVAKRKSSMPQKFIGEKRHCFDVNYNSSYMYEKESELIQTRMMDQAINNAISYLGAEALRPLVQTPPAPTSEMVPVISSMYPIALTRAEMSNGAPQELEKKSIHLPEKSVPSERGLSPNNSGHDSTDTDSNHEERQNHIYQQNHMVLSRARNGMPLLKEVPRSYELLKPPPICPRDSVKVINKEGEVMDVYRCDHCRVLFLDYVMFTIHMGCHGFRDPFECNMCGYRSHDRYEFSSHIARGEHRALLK
T2 sequence (Q96SW2 whole entry): as the sequence (Q96SW2 whole entry, the tested form may be a part) above
T2 sequence (Q16531 whole entry partner): as the sequence (Q16531 whole entry partner, the tested form may be a part) above
T4 sequence (Q13422 whole entry): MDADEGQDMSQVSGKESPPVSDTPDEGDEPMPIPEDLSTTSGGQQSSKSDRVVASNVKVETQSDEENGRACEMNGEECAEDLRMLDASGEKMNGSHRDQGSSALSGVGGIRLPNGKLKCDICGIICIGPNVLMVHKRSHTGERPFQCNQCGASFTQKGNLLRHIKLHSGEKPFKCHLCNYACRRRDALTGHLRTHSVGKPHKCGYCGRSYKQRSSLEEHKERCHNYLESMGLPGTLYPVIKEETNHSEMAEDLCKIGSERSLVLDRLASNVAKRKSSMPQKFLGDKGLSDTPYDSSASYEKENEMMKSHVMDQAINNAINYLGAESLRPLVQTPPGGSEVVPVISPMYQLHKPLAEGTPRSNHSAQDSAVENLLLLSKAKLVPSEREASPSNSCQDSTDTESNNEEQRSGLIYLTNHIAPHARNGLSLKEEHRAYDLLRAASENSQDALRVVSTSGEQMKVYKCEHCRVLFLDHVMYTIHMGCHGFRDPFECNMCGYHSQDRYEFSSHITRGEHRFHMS
T4 sequence (Q96SW2 whole entry): as the sequence (Q96SW2 whole entry, the tested form may be a part) above
T4 sequence (Q16531 whole entry partner): as the sequence (Q16531 whole entry partner, the tested form may be a part) above
T3 sequence (Q96SW2 whole entry, the tested form may be a part): as the sequence (Q96SW2 whole entry, the tested form may be a part) above
T3 sequence (Q9UKT9 130-189): as the sequence (Q9UKT9 130-189 Q147A) above, with A18Q counted along it
T3 sequence (Q16531 2-1140, further chain): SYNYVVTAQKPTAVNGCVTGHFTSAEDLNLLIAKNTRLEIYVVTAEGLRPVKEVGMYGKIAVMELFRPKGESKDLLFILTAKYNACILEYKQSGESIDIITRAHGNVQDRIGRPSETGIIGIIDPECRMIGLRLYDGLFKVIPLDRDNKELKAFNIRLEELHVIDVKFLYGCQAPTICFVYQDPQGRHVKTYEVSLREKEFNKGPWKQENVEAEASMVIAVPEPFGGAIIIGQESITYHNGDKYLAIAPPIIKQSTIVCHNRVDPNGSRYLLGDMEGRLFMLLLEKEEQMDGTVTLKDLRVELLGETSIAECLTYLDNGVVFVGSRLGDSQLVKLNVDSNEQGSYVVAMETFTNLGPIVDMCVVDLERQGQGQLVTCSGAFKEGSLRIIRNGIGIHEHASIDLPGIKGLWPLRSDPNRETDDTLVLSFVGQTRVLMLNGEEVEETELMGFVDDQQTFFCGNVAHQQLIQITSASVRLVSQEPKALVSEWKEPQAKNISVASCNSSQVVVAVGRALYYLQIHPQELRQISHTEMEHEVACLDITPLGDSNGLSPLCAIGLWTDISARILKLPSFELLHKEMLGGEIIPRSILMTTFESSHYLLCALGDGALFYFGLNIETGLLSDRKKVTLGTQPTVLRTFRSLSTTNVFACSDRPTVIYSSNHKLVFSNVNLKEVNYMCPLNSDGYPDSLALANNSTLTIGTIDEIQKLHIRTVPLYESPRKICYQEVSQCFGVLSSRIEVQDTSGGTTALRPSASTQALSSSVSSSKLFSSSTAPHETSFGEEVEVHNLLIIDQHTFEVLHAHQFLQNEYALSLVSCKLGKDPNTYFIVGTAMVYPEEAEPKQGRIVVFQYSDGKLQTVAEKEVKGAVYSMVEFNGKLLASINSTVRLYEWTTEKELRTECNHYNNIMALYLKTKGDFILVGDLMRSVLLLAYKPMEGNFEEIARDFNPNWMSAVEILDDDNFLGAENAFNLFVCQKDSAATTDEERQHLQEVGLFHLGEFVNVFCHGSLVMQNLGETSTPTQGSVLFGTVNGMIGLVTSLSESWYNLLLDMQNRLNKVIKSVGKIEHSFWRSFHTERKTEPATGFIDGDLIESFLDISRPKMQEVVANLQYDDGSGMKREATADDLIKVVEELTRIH
Method for MM.1S cells: Quantitative proteomics screens were carried out in untransduced Jurkat cells, embryonic stem cells (ESCs), and the multiple myeloma cell line, MM.1S. We used Jurkat cells, as our work up to this point had employed this cell line, and we selected ESCs and MM.1S cells as they express known CRBN neosubstrates, including IKZF1, IKZF3, RAB28, RNF166, SALL4, ZFP91, and ZNF827.
Proteomics - cell lysis and protein digestion
The viability of Jurkat cells was tested after 16-h treatment with corresponding chemicals
viable cells in each condition. Next, ~10^7 cells per condition were collected by centrifugation (1000 rpm), washed twice with ice-cold PBS, and lysed in RIPA buffer [50 mM HEPES pH 7.4, 150 mM NaCl, 1% sodium deoxycholate, 1% NP-40, 0.1% SDS, 10 mM sodium pyrophosphate, 10 mM β-glycerophosphate, 2.5 mM MgCl2, 200 µM TCEP, phosphatase and protease inhibitor cocktail (in-house)], to produce whole cell extracts. Whole-cell extracts were sonicated, and protein concentrations were determined using the Bradford assay. Protein extracts (100 µg) were subjected to disulfide bond reduction with 5 mM TCEP (10 min) and alkylation with 25 mM chloroacetamide (20 min). Methanol–chloroform precipitation was performed prior to protease digestion. […]

For `Nc1cccc2c1C(=O)N(C1CCC(=O)NC1=O)C2=O` (centres unmarked) [Compound 2, pomalidomide], in assay [1], the Dmax was determined as 94%. Besides, in assay [2], the “degradation of endogenous IKZF3 (Western blot)” value is “did cause IKZF3 degradation” and the “endogenous IKZF3 levels (Western blot)” value was “depleted endogenous IKZF3”. In addition, the “degradation of WT degron-tagged EGFP (Western blot)” value in assay [3] is “induced degradation of EGFP”. For the same molecule, in the assay on Jurkat cells (protein A2M (P01023)), the “Scaled value (to 150), replicate 01” value amounted to 7.144; the “Scaled value (to 150), replicate 02” value is 8.281; the “Scaled value (to 150), replicate 03” value came out at 7.913. Also, in the assay on Jurkat cells (protein AAAS (Q9NRG9)), the “Scaled value (to 150), replicate 01” value was 9.781; the “Scaled value (to 150), replicate 02” value worked out at 9.111; the “Scaled value (to 150), replicate 03” value is reported as 9.328. Further, in the assay on Jurkat cells (protein AACS (Q86V21)), the “Scaled value (to 150), replicate 01” value came out at 9.6081; the “Scaled value (to 150), replicate 02” value was determined as 10.2184; the “Scaled value (to 150), replicate 03” value came out at 9.9438. In addition, in the assay on Jurkat cells (setting [6]), the “Scaled value (to 150), replicate 01” value stood at 9.467; the “Scaled value (to 150), replicate 02” value was 10.1133; the “Scaled value (to 150), replicate 03” value amounted to 9.458. Further, the “proteins significantly degraded (quantitative proteomics)” value in the assay on MM.1S cells was “IKZF1, IKZF3, and at least 6 other proteins were significantly degraded”.

With `O=C1CCC(N2C(=O)c3ccc(N4CCOCC4)cc3C2=O)C(=O)N1` (centres unmarked) [Compound 22], the Dmax in assay [1] (18 h, Fig 2B) stood at 76%. Moreover, the Log2FC was -1.0370 in assay [4] (setting [7]); 3.8315 in assay [4] (degron residues 146/147/149/150/152/153/154/155/167: FFEIGACFL); 3.937 in assay [4] (degron residues 146/147/149/150/152/153/154/155/167: FIPVGAPFL); 3.9835 and 3.984 in assay [4] (setting [12]); 3.8903 in assay [4] (degron residues 146/147/149/150/152/153/154/155/167: FWDVGANFL); 3.8513 in assay [4] (degron residues 146/147/149/150/152/153/154/155/167: FWDVGAQFL). Besides, the Log2FC is 3.8306 in assay [4] (degron residues 146/147/149/150/152/153/154/155/167: FWEIGAAFL); 3.9298 and 3.93 in assay [4] (degron residues 146/147/149/150/152/153/154/155/167: FWEIGAQFL); 3.9041 in assay [4] (degron residues 146/147/149/150/152/153/154/155/167: FWEVGAAFL); 3.9186 in assay [4] (degron residues 146/147/149/150/152/153/154/155/167: FWEVGAHFL); 3.8571 in assay [4] (degron residues 146/147/149/150/152/153/154/155/167: FWEVGAKFL); 3.8564 in assay [4] (degron residues 146/147/149/150/152/153/154/155/167: FWEVGANFL). Further, the Log2FC in assay [4] (degron residues 146/147/149/150/152/153/154/155/167: FWPVGANFL) is 3.8155; in assay [4] (degron residues 146/147/149/150/152/153/154/155/167: FWPVGAQFL), 3.9190; in assay [4] (degron residues 146/147/149/150/152/153/154/155/167: FYEIGAKFL), 3.8391; in assay [4] (degron residues 146/147/149/150/152/153/154/155/167: FYEIGATFL), 4.0154 and 4.054; in assay [4] (setting [13]) it was 3.8457; in assay [4] (degron residues 146/147/149/150/152/153/154/155/167: FYEVGANFL), 3.8762. The Log2FC was 3.8615 in assay [4] (degron residues 146/147/149/150/152/153/154/155/167: FYEVGASFL); 4.1392 and 4.14 in assay [4] (degron residues 146/147/149/150/152/153/154/155/167: FYEVGATFL); 3.9018 in assay [4] (degron residues 146/147/149/150/152/153/154/155/167: LYEIGFRCL). In addition, the logFC in assay [4] (setting [8]) is given as 2.037; in assay [4] (setting [9]) it was 0.5955; in assay [4] (setting [10]) it was -1.619; in assay [4] (setting [11]), -0.4533. Moreover, in assay [5], the “degradation of endogenous IKZF1” value is recorded as “did not induce degradation of endogenous IKZF1”.

Turning to `O=C1CCC(N2C(=O)c3cccc(NC(c4ccccc4)c4ccccc4)c3C2=O)C(=O)N1` (centres unmarked) [Compound 33], in assay [1] (18 h, Fig 2B), the Dmax amounted to 97%. Further, the Log2FC in assay [4] (setting [7]) is -1.2556; in assay [4] (degron residues 146/147/149/150/152/153/154/155/167: FGPVGAFFL) it was 3.1139; in assay [4] (degron residues 146/147/149/150/152/153/154/155/167: FMEIGAAFL) it was 3.1949; in assay [4] (degron residues 146/147/149/150/152/153/154/155/167: FMEIGAPFL), 3.1328; in assay [4] (degron residues 146/147/149/150/152/153/154/155/167: FMEVGAPFL), 3.1157; in assay [4] (degron residues 146/147/149/150/152/153/154/155/167: FMNIGAPFL), 3.2358 and 3.236. In addition, the Log2FC is 3.0896 in assay [4] (degron residues 146/147/149/150/152/153/154/155/167: FMPIGAPFL); 3.0783 in assay [4] (degron residues 146/147/149/150/152/153/154/155/167: FMPVGAAFL); 3.0869 in assay [4] (degron residues 146/147/149/150/152/153/154/155/167: FMPVGAPFL); 3.3226 and 3.323 in assay [4] (degron residues 146/147/149/150/152/153/154/155/167: FRDIGAPFL); 3.2095 in assay [4] (degron residues 146/147/149/150/152/153/154/155/167: FRDVGAPFL); 3.3123 in assay [4] (setting [12]). Further, the Log2FC in assay [4] (degron residues 146/147/149/150/152/153/154/155/167: FREVGAPFL) was 3.3928 and 3.393; in assay [4] (degron residues 146/147/149/150/152/153/154/155/167: FRPVGAPFL), 3.2684 and 3.268; in assay [4] (degron residues 146/147/149/150/152/153/154/155/167: FYEIGAQFL) it was 3.1346; in assay [4] (setting [13]), 3.1049; in assay [4] (degron residues 146/147/149/150/152/153/154/155/167: LCPIGFTCL), 3.1410; in assay [4] (degron residues 146/147/149/150/152/153/154/155/167: LCPIGFYCL), 3.1590. Moreover, the Log2FC is reported as 3.0997 in assay [4] (degron residues 146/147/149/150/152/153/154/155/167: LYEIGFSCL), 3.1905 in assay [4] (degron residues 146/147/149/150/152/153/154/155/167: LYEIGFTCL) and 3.0902 in assay [4] (degron residues 146/147/149/150/152/153/154/155/167: LYPIGFSCL). In addition, the logFC in assay [4] (setting [8]) is -0.4744; in assay [4] (setting [9]) it was -0.1939; in assay [4] (setting [10]) it was -2.168; in assay [4] (setting [11]) it was -2.426. The “degradation of endogenous IKZF1” value in assay [5] is “modest degradation of IKZF1”.
